# Measured values as given in patent US20230372293A1, “SIRT1 INHIBITOR OR ANTAGONIST FOR USE IN PREVENTING AND/OR TREATING AN HPV INDUCED TUMOUR” (UNIVERSITA' DEGLI STUDI DEL PIEMONTE ORIENTALE "A. AVOGADRO", priority 2020, published 2023).
# Where a SMILES comes first, the peptide text is derived from it. The star is where a group is joined. Cbz = O=C(OCc1ccccc1)*
# What was measured:
# NOKE6E7 cells = assay: Annexin V-FITC/IP apoptosis assay, EX527 and doxorubicin; type: cell-based, human; details: DX 1.5 μM 24 h, FIG. 6
# Description: (§1) For this purpose, HeLa, CaSki, and NOKE6E7 cells were treated with EX527 (80 μM) for 24 h, or with an equal volume of DMSO solvent and after this period elapsed, they were treated with DX (1.5 μM for HeLa and NOKE6E7, 0.5 μM for CaSki) for a further 24 h. After this incubation period at 37° C., the cells were processed using the “Annexin V-FITC Apoptosis Detection Kit” (BioLegend), a technique that allows the presence of apoptotic and necrotic cells to be detected by cytofluorimetric analysis. This assay exploits the ability of the annexin protein to bind to phosphatidylserine (PS) and thus give fluorescence in green thanks to the conjugated fluorophore (FITC, fluorescein isothiocyanate). PS is a phospholipid normally found on the inner side of the cell membrane. During apoptosis processes, on the other hand, PS is exposed to the outside and allows annexin V to bind to it. […] Subsequently, 400 μl of Annexin V Binding Buffer were added to each tube and the cells were analysed on the FACSCalibur flow cytometer instrument (BD Biosciences) (excitation at 488 nm, emission 518 nm and 400 nm for FITC and IP respectively). The results were then analysed with the FlowJo programme.
# HeLa cells [1] = assay: as above; type: cell-based; details: DX 1.5 μM 24 h, FIG. 6
# Description: as §1
# CaSki cells [2] = assay: as above; type: cell-based; details: DX 0.5 μM 24 h, FIG. 6
# Description: as §1
# HeLa cells [3] = assay: MTT cell viability, EX527 and doxorubicin; type: cell-based; details: DX 1.5 μM for 16, 40, 64 h
# Description: (§2) The observations described above prompted an analysis of whether HPV-positive cells in which SIRT1 is inhibited with consequent reduced expression of E6 and E7 and restoration of p53, could be more sensitive to the treatment with genotoxic drugs, such as doxorubicin (DX, SIGMA ALDRICH). Firstly, cell viability was determined following treatment with EX527 in combination with doxorubicin against HeLa and CaSki cells, using the MTT (3-(4,5-dimethylthiazol-2-yl)-2,5-diphenyltetrazolium bromide; SIGMA-ALDRICH) colorimetric assay. To this purpose, the cells were exposed to a concentration of EX527 of 80 μM or equal volume of solvent, dimethyl sulfoxide (DMSO, SIGMA ALDRICH) for 24 h, after this period elapsed the cells were treated with DX (1.5 μM for HeLa, 0.5 μM for CaSki) for a further 16, 40, 64 h. Subsequently, the supernatant was removed, the well was washed with PBS1× (SIGMA-ALDRICH) and incubated for 2 hours at 37° C. and 5% of CO2 with DMEM medium supplemented with 500 μg/mL MTT solution. […] On these solubilised cells, absorbance was measured at a wavelength of 570 nm, using the Victor3 multiplate reader spectrophotometer (Perkin Elmer). The absorbance value obtained from the sample treated with the carrier alone at the maximum dose was considered equal to 100% viability and the other values were related thereto.
# CaSki cells [4] = assay: MTT cell viability, EX527 and doxorubicin; type: cell-based; details: DX 0.5 μM for 16, 40, 64 h
# Description: as §2
# HeLa cells [5] = assay: Cell cycle analysis by propidium iodide flow cytometry, EX527 and doxorubicin; type: cell-based; details: DX 1.5 μM 16 h
# Description: (§3) For this purpose, HeLa and CaSki cells were treated with EX527 (80 μM) for 24 h, or with an equal volume of DMSO solvent and after this period elapsed, they were treated with DX (1.5 μM for HeLa, 0.5 μM for CaSki) for a further 16 h. After this incubation period at 37° C., the cells were labelled with propidium iodide (IP). Propidium iodide (3,8-diamino-5-diethylmethyl aminopropyl-6-phenylphenanthridine diiodide) (IP) is a synthetic dye characterised by low fluorescence (red-orange), capable of selectively binding to nucleic acids. It is known that the DNA content varies according to the phase of the cycle in which a cell is found. In particular, the G2 phase and mitosis (M) have twice as much DNA as the G1 phase, while during the DNA synthesis phase (S phase), the cell has an intermediate amount of DNA between the content in G1 and G2. Since the apoptotic cells, once resuspended in an appropriate buffer, release small DNA fragments, a reduction in IP fluorescence (related to the decrease in DNA content) can be observed in them. […] The cytofluorimetric analysis was performed on the FACSCalibur flow cytometer instrument (BD Biosciences) (excitation at 488 nm and emission 400 nm) and the results were analysed with the FlowJo programme.
# CaSki cells [6] = assay: as above; type: cell-based; details: DX 0.5 μM 16 h
# Description: as §3
# HeLa cells [7] = assay: Western blot of E6 and E7 with proteosome inhibitor MG132; type: cell-based; details: DMSO then MG132 30 μM 8 h, vs DMSO control
# Description: (§4) In order to determine whether the inhibition of E6 or E7 proteins was due to a transcriptional or post-translational modification, HeLa or CaSki cells, pre-treated for 48 h with EX527 at a concentration of 80 μM or equal volume of solvent, dimethyl sulfoxide (DMSO, SIGMA ALDRICH), were incubated with a proteosome inhibitor, MG132 (SIGMA ALDRICH) for 8 h at a concentration of 30 μM. After this incubation period at 37° C., the expression levels of viral E6 and E7 proteins were tested. The α-tubulin protein was included as an internal loading control. The cells were lysed with RIPA buffer (50 mM Tris-HCl pH 7.4; 150 mM NaCl; 1 mM EDTA; 1% Nonidet P-40; 0.1% SDS; 0.5% deoxycholate; protease inhibitors) for 30 min on ice. The samples were subsequently centrifuged for 10 minutes at 13000 rpm at 4° C. to remove cellular debris and then the proteins were quantified using the Bradford method (BIO-RAD). 30 μg of protein extract were taken, to which the appropriate amount of Laemmli sample buffer (50 mM Tris-HCl pH 6.8, 2% SDS, 10% glycerol, 2% β-mercaptoethanol) was added. The thus obtained solution was heated to 95° C. for 5 minutes and separated by polyacrylamide (12%)-SDS page gel electrophoresis. […]
# CaSki cells [8] = assay: as above; type: cell-based; details: DMSO then MG132 30 μM 8 h, vs DMSO control
# Description: as §4
Structure (SMILES),"percentage of apoptotic cells, DX (NOKE6E7 cells)","percentage of apoptotic cells, DX (HeLa cells [1])","percentage of apoptotic cells, DX (CaSki cells [2])","mortality rate (MTT), DX alone (HeLa cells [3])","mortality rate (MTT), DX alone (CaSki cells [4])","cell death (sub-G0/G1 phase), DX (HeLa cells [5])","cell death (sub-G0/G1 phase), DX (CaSki cells [6])",expression of E6 and E7 after DMSO plus MG132 (HeLa cells [7]),expression of E6 and E7 after DMSO plus MG132 (CaSki cells [8])
"COc1cccc2c1C(=O)c1c(O)c3c(c(O)c1C2=O)C[C@@](O)(C(=O)CO)C[C@@H]3O[C@H]1C[C@H](N)[C@H](O)[C@H](C)O1 [DX, doxorubicin]",increase in the percentage of apoptotic cells,increase in the percentage of apoptotic cells,increase in the percentage of apoptotic cells,mortality rate increases more,mortality rate increases more,increase in cell death (sub-G0/G1 phase),increase in cell death (sub-G0/G1 phase),–,–
CC(C)C[C@@H](C=O)NC(=O)[C@H](CC(C)C)NC(=O)[C@H](CC(C)C)NC(=O)OCc1ccccc1 [MG132] (Cbz-Leu-Leu-Leu-aldehyde),–,–,–,–,–,–,–,recovery in the expression of the tested proteins,recovery in the expression of the tested proteins
